# Data from patent US20220226299A1 (NIPPON CHEMIPHAR CO., LTD., priority 2019, published 2022).
# Biological target: T1, human Cav3.2 channels (Homo sapiens, UniProt O95180)
# T1 construct: human Cav3.2 channel ORF (Open Reading Frame) gene; expressed in transfected cells; host or cells: HEK293 cells (ATCC No. CRL-1573), pcDNA3.1(+) plasmid
# Test: T-type calcium blocking action: intracellular calcium (Fluo-4 AM fluorescence) in HEK293 cells steadily expressing human Cav3.2 channels
# Assay type: cell-based
# Conditions: HEK293 cells expressing human Cav3.2; KCl-stimulated calcium influx, Fluo-4 fluorescence; Tables 1 to 3
# Method in brief: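 Fluo-4 AM-loaded stable HEK293 cells were preincubated 15 min at RT with compound (0.1% DMSO final) in choline-based buffer (pH 7.3). Gramicidin was added, then KCl-induced calcium influx was read at 485/510 nm for 10 s. Percent block came from peak rise over baseline, and IC50 from log-concentration plots.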
# T1 sequence (O95180 whole entry): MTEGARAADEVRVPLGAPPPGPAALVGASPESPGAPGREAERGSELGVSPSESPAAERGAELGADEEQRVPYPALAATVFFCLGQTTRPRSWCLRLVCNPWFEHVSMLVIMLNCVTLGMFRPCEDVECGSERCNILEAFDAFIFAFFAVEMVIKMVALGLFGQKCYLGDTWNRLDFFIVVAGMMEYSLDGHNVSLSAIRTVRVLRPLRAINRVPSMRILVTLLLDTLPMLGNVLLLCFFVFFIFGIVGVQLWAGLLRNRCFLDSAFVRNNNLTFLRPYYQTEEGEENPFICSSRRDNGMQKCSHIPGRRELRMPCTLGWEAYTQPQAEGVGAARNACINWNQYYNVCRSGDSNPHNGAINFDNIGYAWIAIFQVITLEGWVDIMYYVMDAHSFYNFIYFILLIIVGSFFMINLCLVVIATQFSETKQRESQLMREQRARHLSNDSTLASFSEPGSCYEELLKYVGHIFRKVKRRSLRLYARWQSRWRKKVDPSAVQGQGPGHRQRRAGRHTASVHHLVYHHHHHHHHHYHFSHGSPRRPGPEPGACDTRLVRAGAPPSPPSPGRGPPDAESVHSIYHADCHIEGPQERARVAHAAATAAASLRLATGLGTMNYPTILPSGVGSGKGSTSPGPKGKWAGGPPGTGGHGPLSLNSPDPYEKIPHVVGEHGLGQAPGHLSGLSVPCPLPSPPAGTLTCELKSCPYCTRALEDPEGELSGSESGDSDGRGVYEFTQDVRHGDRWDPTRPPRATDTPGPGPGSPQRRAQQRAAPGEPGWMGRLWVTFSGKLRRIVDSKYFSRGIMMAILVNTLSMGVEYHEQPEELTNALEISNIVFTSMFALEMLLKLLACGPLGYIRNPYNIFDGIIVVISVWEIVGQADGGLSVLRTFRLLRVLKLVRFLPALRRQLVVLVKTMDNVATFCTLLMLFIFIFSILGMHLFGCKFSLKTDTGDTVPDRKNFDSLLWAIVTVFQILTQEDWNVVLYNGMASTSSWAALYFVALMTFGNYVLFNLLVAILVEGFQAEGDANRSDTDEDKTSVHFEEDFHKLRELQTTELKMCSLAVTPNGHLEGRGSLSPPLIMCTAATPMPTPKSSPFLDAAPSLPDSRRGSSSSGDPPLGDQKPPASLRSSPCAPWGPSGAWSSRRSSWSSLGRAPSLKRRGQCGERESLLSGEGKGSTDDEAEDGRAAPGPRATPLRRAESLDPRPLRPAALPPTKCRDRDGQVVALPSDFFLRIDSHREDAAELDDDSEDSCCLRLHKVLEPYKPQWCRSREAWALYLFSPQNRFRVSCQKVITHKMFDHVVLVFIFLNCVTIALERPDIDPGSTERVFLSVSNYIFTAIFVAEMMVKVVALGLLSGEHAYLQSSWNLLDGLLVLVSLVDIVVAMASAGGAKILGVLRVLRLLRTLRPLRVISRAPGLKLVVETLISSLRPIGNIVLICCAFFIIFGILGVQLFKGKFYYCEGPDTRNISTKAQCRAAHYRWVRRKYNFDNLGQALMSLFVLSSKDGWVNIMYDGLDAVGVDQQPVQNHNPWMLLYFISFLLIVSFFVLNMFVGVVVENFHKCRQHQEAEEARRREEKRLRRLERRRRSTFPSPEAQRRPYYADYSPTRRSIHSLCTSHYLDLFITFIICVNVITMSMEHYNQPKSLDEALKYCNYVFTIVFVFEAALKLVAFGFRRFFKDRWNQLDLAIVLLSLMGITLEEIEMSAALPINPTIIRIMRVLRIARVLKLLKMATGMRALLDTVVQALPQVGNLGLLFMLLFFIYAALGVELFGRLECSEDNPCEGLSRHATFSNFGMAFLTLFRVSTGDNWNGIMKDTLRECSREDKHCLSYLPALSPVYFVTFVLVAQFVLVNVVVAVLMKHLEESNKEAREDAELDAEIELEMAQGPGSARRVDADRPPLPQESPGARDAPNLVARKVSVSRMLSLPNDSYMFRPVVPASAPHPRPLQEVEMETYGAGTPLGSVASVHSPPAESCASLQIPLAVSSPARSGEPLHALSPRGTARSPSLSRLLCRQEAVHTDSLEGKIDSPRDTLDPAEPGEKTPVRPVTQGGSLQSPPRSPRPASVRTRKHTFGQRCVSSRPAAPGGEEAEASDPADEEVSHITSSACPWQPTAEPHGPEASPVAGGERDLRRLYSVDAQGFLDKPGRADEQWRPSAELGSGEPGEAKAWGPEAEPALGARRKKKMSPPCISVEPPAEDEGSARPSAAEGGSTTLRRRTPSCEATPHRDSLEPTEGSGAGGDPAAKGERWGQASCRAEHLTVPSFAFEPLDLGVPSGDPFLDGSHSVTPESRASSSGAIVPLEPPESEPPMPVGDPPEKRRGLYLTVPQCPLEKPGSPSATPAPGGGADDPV
row,Structure (SMILES),IC50 [nM]
1,"O=C(Cc1ccc(N2CCOCC2)cc1)N[C@@H]1CCN(c2nc(C(F)(F)F)cs2)C1 [Example 40, (R)-2-(4-morpholinophenyl)-N-(1-(4-(trifluoromethyl)thiazol-2-yl)pyrrolidin-3-yl)acetamide]",300
2,"O=C(N[C@@H]1CCN(c2cncc(C(F)(F)F)c2)C1)C1CC1c1ccc(F)c(F)c1 (single isomer, unassigned) [Example 107A]",4.7
3,"O=C(Cc1ccc2ncsc2c1)N[C@@H]1CCN(c2ccc(C(F)(F)F)nc2)C1 [Example 158, (R)-2-(benzo[d]thiazol-6-yl)-N-(1-(6-(trifluoromethyl)pyridin-3-yl)pyrrolidin-3-yl)acetamide]",1100
4,"O=C(Cc1ccc(N2CC3CC2CO3)cc1)N[C@@H]1CCN(c2cncc(C(F)(F)F)c2)C1 (single isomer, unassigned) [Example 165]",30
5,"Cn1ncc2cc(CC(=O)N[C@@H]3CCN(c4cncc(C(F)(F)F)c4)C3)ccc21 [Example 142, (R)-2-(1-methyl-1H-indazol-5-yl)-N-(1-(5-(trifluoromethyl)pyridin-3-yl)pyrrolidin-3-yl)acetamide]",9.4
6,O=C(N[C@@H]1CCN(c2ccc(C(F)(F)F)nc2)C1)[C@H]1C[C@@H]1c1nc2cc(F)ccc2o1 [Example 51],120
7,"O=C(Cc1ccc(OCC(F)(F)F)cc1)N[C@@H]1CCN(c2cncc(C(F)(F)F)c2)C1 [Example 116, (R)-2-(4-(2,2,2-trifluoroethoxy)phenyl)-N-(1-(5-(trifluoromethyl)pyridin-3-yl)pyrrolidin-3-yl)acetamide]",40
8,"O=C(Cc1ccc(N2C[C@@H]3CC[C@H]2CO3)cc1)N[C@@H]1CCN(c2cncc(C(F)(F)F)c2)C1 [Example 155, 2-(4-((1S,4S)-2-oxa-5-azabicyclo[2.2.2]octan-5-yl)phenyl)-N—((R)-1-(5-(trifluoromethyl)pyridin-3-yl)pyrrolidin-3-yl)acetamide]",75
9,"CC(C)c1ccc(CC(=O)NC2CN(c3ccc(C(F)(F)F)nc3)C2)cc1 [Example 118, 2-(4-Isopropylphenyl)-N-(1-(6-(trifluoromethyl)pyridin-3-yl)azetidin-3-yl)acetamide]",2100
10,"O=C(Cc1nc2ccccc2o1)N[C@@H]1CCN(c2cncc(C(F)(F)F)c2)C1 [Example 98, (R)-2-(benzo[d]oxazol-2-yl)-N-(1-(5-(trifluoromethyl)pyridin-3-yl)pyrrolidin-3-yl)acetamide]",1100
11,"O=C(Cc1ccc(C2CC2)cc1)N[C@@H]1CCCN(c2cncc(C(F)(F)F)c2)C1 [Example 129, (R)-2-(4-cyclopropylphenyl)-N-(1-(5-(trifluoromethyl)pyridin-3-yl)piperidin-3-yl)acetamide]",550
12,"CC(C)Cc1ccc([C@H](C)C(=O)N[C@@H]2CCN(c3cncc(C(F)(F)F)c3)C2)cc1 [Example 31, (S)-2-(4-isobutylphenyl)-N—((R)-1-(5-(trifluoromethyl)pyridin-3-yl)pyrrolidin-3-yl)propanamide]",210
13,"COc1cccc(N2CC[C@@H](NC(=O)Cc3ccc(C4CC4)cc3)C2)c1 [Example 175, (R)-2-(4-cyclopropylphenyl)-N-(1-(3-methoxyphenyl)pyrrolidin-3-yl)acetamide]",490

# Now from value to molecule:
row,IC50 [nM],Structure (SMILES)
1,750,"O=C(Cc1ccc(C(F)(F)F)nc1)N[C@@H]1CCN(c2cncc(C(F)(F)F)c2)C1 [Example 82, (R)-2-(6-(trifluoromethyl)pyridin-3-yl)-N-(1-(5-(trifluoromethyl)pyridin-3-yl)pyrrolidin-3-yl)acetamide]"
2,290,"O=C(Cc1ccc(C2CC2)cc1)N[C@H]1CN(c2cncc(C(F)(F)F)c2)C[C@@H]1O [Example 5, 2-(4-cyclopropylphenyl)-N-((3S,4S)-4-hydroxy-1-(5-(trifluoromethyl)pyridin-3-yl)pyrrolidin-3-yl)acetamide]"
3,830,"O=C(Cc1ccc(C2CC2)cc1)N[C@@H]1CCN(c2cncc(OCC(F)(F)F)c2)C1 [Example 126, (R)-2-(4-cyclopropylphenyl)-N-(1-(5-(2,2,2-trifluoroethoxy)pyridin-3-yl)pyrrolidin-3-yl)acetamide]"
4,100,"O=C(Cc1ccc(N2CCC3(CC2)OCCO3)cc1)N[C@@H]1CCN(c2cncc(C(F)(F)F)c2)C1 [Example 101, (R)-2-(4-(1,4-dioxa-8-azaspiro[4.5]decan-8-yl)phenyl)-N-(1-(5-(trifluoromethyl)pyridin-3-yl)pyrrolidin-3-yl)acetamide]"
5,100,"CC(C)c1ccc(CC(=O)N[C@@H]2CCN(c3ccc(C(F)(F)F)nc3)C2)cc1 [Example 113, (R)-2-(4-isopropylphenyl)-N-(1-(6-(trifluoromethyl)pyridin-3-yl)pyrrolidin-3-yl)acetamide]"
6,35,"COC(=O)C1(NC(=O)Cc2ccc(C(F)(F)F)cc2)CCN(c2cncc(C(F)(F)F)c2)C1 (stereo not drawn) [Example 38, Methyl 3-(2-(4-(trifluoromethyl)phenyl)acetamido)-1-(5-(trifluoromethyl)pyridin-3-yl)pyrrolidine-3-carboxylate]"
7,190,"O=C(N[C@@H]1CCCN(c2ccc(C(F)(F)F)nc2)C1)C1CC1c1nc2ccccc2[nH]1 (single isomer, unassigned) [Example 63A]"
8,210,"O=C(N[C@@H]1CCN(c2cnc(C(F)(F)F)nc2)C1)[C@H]1C[C@@H]1c1nc2ccccc2[nH]1 [Example 70, (1S,2S)-2-(1H-benzo[d]imidazol-2-yl)-N—((R)-1-(2-(trifluoromethyl)pyrimidin-5-yl)pyrrolidin-3-yl)cyclopropane-1-carboxyamide]"
9,280,"N#Cc1ncc(N2CC[C@@H](NC(=O)Cc3ccc(C4CC4)cc3)C2)cc1C(F)(F)F [Example 12, (R)—N-(1-(6-cyano-5-(trifluoromethyl)pyridin-3-yl)pyrrolidin-3-yl)-2-(4-cyclopropylphenyl)acetamide]"
10,220,"O=C(Cc1ccc(N2CC3CC2CO3)cc1)N[C@@H]1CCN(c2ccc(C(F)(F)F)nc2)C1 (single isomer, unassigned) [Example 166]"
11,200,"C[C@@]1(NC(=O)Cc2ccc(C3CC3)cc2)CCN(c2cncc(C(F)(F)F)c2)C1 [Example 148, (R)-2-(4-cyclopropylphenyl)-N-(3-methyl-1-(5-(trifluoromethyl)pyridin-3-yl)pyrrolidin-3-yl)acetamide]"
12,910,"O=C(Cc1ccc(N2CCNCC2)cc1)N[C@@H]1CCN(c2cncc(C(F)(F)F)c2)C1 [Example 94, (R)-2-(4-(piperazin-1-yl)phenyl)-N-(1-(5-(trifluoromethyl)pyridin-3-yl)pyrrolidin-3-yl)acetamide]"
13,1300,"O=C(Cc1ccc(N2C[C@@H]3CC[C@H]2CO3)cc1)N[C@@H]1CCN(c2ccc(C(F)(F)F)nc2)C1 [Example 156, 2-(4-((1S,4S)-2-oxa-5-azabicyclo[2.2.2]octan-5-yl)phenyl)-N—((R)-1-(6-(trifluoromethyl)pyridin-3-yl)pyrrolidin-3-yl)acetamide]"
14,25,"O=C(Cc1ccc(N2CCOCC2)cc1)N[C@@H]1CCN(c2cncc(C(F)(F)F)c2)C1 [Example 181, (R)-2-(4-morpholinophenyl)-N-(1-(5-(trifluoromethyl)pyridin-3-yl)pyrrolidin-3-yl)acetamide]"
